# Several values for one entry are separate records, joined by “and”; a condition that tells them apart may be missing. Equal entries are not always repeated.
# Test system: panel of 484 cancer cell lines
# Assay: PRISM cancer cell line profiling, 5 days
# Assay type: cell-based
# Set-up: Viability: scale not given here; AUC: unit not given beside the values
# Method: Cancer cell line profiling was performed using the Broad’s PRISM platform. Cell treatment and data analysis were performed as described in Yu et al[42]. Raw Luminex signal was converted to AUC values for each cell line as described. The resulting AUC profile for each compound was modeled against DepMap using the limma package in R[71]. Because hotspot mutation analysis was performed against DepMap, TP53 annotations in Fig. 6c,d are directly from DepMap.
# [1] = ISHIKAWAHERAKLIO02ER_ENDOMETRIUM, pert_dose 6.10E-04
# [2] = ISTMES1_PLEURA, pert_dose 6.10E-04
# [3] = J82_URINARY_TRACT, pert_dose 6.10E-04
# [4] = JHOC5_OVARY, pert_dose 6.10E-04
# [5] = JHOM1_OVARY, pert_dose 6.10E-04
# [6] = JHOS2_OVARY, pert_dose 6.10E-04
# [7] = JHUEM2_ENDOMETRIUM, pert_dose 6.10E-04
# [8] = JMSU1_URINARY_TRACT, pert_dose 6.10E-04
# [9] = K029AX_SKIN, pert_dose 6.10E-04
# [10] = KMBC2_URINARY_TRACT, pert_dose 6.10E-04
# [11] = KMRC1_KIDNEY, pert_dose 6.10E-04
# [12] = KMRC3_KIDNEY, pert_dose 6.10E-04
# [13] = KMRC20_KIDNEY, pert_dose 6.10E-04
# [14] = KNS42_CENTRAL_NERVOUS_SYSTEM, pert_dose 6.10E-04
# [15] = KNS60_CENTRAL_NERVOUS_SYSTEM, pert_dose 6.10E-04
# [16] = KNS81_CENTRAL_NERVOUS_SYSTEM, pert_dose 6.10E-04
# [17] = KP3_PANCREAS, pert_dose 6.10E-04
# [18] = KPL1_BREAST, pert_dose 6.10E-04
smiles,measurement,setting,value
COc1ccc(C2=N[C@@H](c3ccc(Cl)cc3)[C@@H](c3ccc(Cl)cc3)N2C(=O)N2CCNC(=O)C2)c(OC(C)C)c1 [Nutlin-3A],MFI ISHIKAWAHERAKLIO02ER_ENDOMETRIUM,[1],17513 and 21089 and 23031 and 24710 and 21077
same,Viability,[1],1.048
same,AUC,ISTMES1_PLEURA,0.8886
same,MFI ISTMES1_PLEURA,[2],2566 and 2035 and 2347.5 and 2015 and 3109
same,Viability,[2],1.235
same,AUC,ISTMES2_PLEURA,1.138
same,AUC,J82_URINARY_TRACT,1.1759
same,MFI J82_URINARY_TRACT,[3],7594 and 8347 and 7959 and 7415.5 and 7720
same,Viability,[3],1.013
same,AUC,JHH1_LIVER,0.9453
same,MFI JHH1_LIVER,"JHH1_LIVER, pert_dose 6.10E-04",11573 and 10266 and 10186 and 11807 and 10726
same,Viability,"JHH1_LIVER, pert_dose 6.10E-04",1.394
same,AUC,JHH4_LIVER,1.013
same,MFI JHH4_LIVER,"JHH4_LIVER, pert_dose 6.10E-04",1508 and 1417.5 and 1162 and 1639 and 865
same,Viability,"JHH4_LIVER, pert_dose 6.10E-04",1.304
same,AUC,JHH5_LIVER,1.1112
same,MFI JHH5_LIVER,"JHH5_LIVER, pert_dose 6.10E-04",3002.5 and 2853 and 3080 and 1890 and 2323
same,Viability,"JHH5_LIVER, pert_dose 6.10E-04",1.08
same,AUC,JHH6_LIVER,1.195
same,AUC,JHH7_LIVER,1.097
same,MFI JHH7_LIVER,"JHH7_LIVER, pert_dose 6.10E-04",18251 and 14971.5 and 12968 and 19915 and 22149.5
same,Viability,"JHH7_LIVER, pert_dose 6.10E-04",1.3367
same,AUC,JHOC5_OVARY,0.8963
same,MFI JHOC5_OVARY,[4],1729 and 2155 and 2543 and 1875 and 1529
same,Viability,[4],1.248
same,AUC,JHOM1_OVARY,1.061
same,MFI JHOM1_OVARY,[5],10909 and 10588 and 11258 and 11487.5 and 8758
same,Viability,[5],1.182
same,AUC,JHOS2_OVARY,1.199
same,MFI JHOS2_OVARY,[6],8954 and 9206 and 9624 and 7221 and 11208
same,Viability,[6],1.028
same,AUC,JHUEM2_ENDOMETRIUM,0.8108
same,MFI JHUEM2_ENDOMETRIUM,[7],2855 and 2201 and 2113.5 and 2693 and 2731
same,Viability,[7],1.224
same,AUC,JIMT1_BREAST,1.15
same,MFI JIMT1_BREAST,"JIMT1_BREAST, pert_dose 6.10E-04",10595.5 and 12336 and 13040 and 10400 and 10776.5
same,AUC,JMSU1_URINARY_TRACT,1.157
same,MFI JMSU1_URINARY_TRACT,[8],4527 and 4135 and 3123.5 and 5456 and 3525
same,Viability,[8],1.215
same,AUC,K029AX_SKIN,1.078
same,MFI K029AX_SKIN,[9],12564 and 8034.5 and 10939 and 12309 and 13968
same,Viability,[9],1.186
same,AUC,KALS1_CENTRAL_NERVOUS_SYSTEM,1.089
same,AUC,KELLY_AUTONOMIC_GANGLIA,1.128
same,Viability,"KELLY_AUTONOMIC_GANGLIA, pert_dose 6.10E-04",1.339
same,AUC,KMBC2_URINARY_TRACT,0.9038
same,MFI KMBC2_URINARY_TRACT,[10],31608 and 32944 and 28231 and 28847.5 and 34382
same,Viability,[10],1.231
same,AUC,KMRC1_KIDNEY,0.8619
same,MFI KMRC1_KIDNEY,[11],5006 and 3553 and 4568 and 4375 and 4801
same,Viability,[11],1.324
same,AUC,KMRC3_KIDNEY,1.059
same,MFI KMRC3_KIDNEY,[12],29567 and 34290 and 33080.5 and 28662.5 and 32330
same,Viability,[12],1.163
same,AUC,KMRC20_KIDNEY,1.075
same,MFI KMRC20_KIDNEY,[13],6115 and 7240 and 5574 and 9127.5 and 7315
same,Viability,[13],0.8672
same,AUC,KNS42_CENTRAL_NERVOUS_SYSTEM,1.094
same,MFI KNS42_CENTRAL_NERVOUS_SYSTEM,[14],8504.5 and 8227 and 7874 and 8635.5 and 8359
same,Viability,[14],1.265
same,AUC,KNS60_CENTRAL_NERVOUS_SYSTEM,1.169
same,MFI KNS60_CENTRAL_NERVOUS_SYSTEM,[15],11444.5 and 12827 and 11109 and 11402 and 11624
same,Viability,[15],1.1124
same,AUC,KNS62_LUNG,1.292
same,MFI KNS62_LUNG,"KNS62_LUNG, pert_dose 6.10E-04",2968.5 and 3165 and 4343 and 4527 and 3128
same,Viability,"KNS62_LUNG, pert_dose 6.10E-04",1.098
same,AUC,KNS81_CENTRAL_NERVOUS_SYSTEM,0.9079
same,MFI KNS81_CENTRAL_NERVOUS_SYSTEM,[16],11445 and 13291.5 and 12010.5 and 13242.5 and 18307.5
same,Viability,[16],0.9016
same,AUC,KP2_PANCREAS,1.091
same,AUC,KP3_PANCREAS,1.107
same,MFI KP3_PANCREAS,[17],17810 and 19047 and 22202 and 17616 and 20627.5
same,Viability,[17],1.1325
same,AUC,KP4_PANCREAS,1.1795
same,MFI KP4_PANCREAS,"KP4_PANCREAS, pert_dose 6.10E-04",27317.5 and 27770 and 29960.5 and 31578.5 and 28421.5
same,AUC,KPL1_BREAST,0.8742
same,MFI KPL1_BREAST,[18],9781 and 14848 and 14727 and 9958 and 12061.5
same,Viability,[18],0.9855
same,AUC,KU1919_URINARY_TRACT,0.8508
same,AUC,KURAMOCHI_OVARY,1.126
same,AUC,KYSE30_OESOPHAGUS,0.985
same,AUC,KYSE70_OESOPHAGUS,1.1193
same,AUC,KYSE140_OESOPHAGUS,1.1498
same,AUC,KYSE150_OESOPHAGUS,1.138
same,AUC,KYSE180_OESOPHAGUS,1.143
same,AUC,KYSE270_OESOPHAGUS,0.9726
same,AUC,KYSE410_OESOPHAGUS,1.088
same,AUC,KYSE510_OESOPHAGUS,0.9924
same,AUC,KYSE520_OESOPHAGUS,1.08
same,AUC,L33_PANCREAS,1.295
same,AUC,LC1SQSF_LUNG,1.142
